Assay results taken from patent US6737383B1, “Herbicidal oxadiazolidines” (priority 1999, dated 2004).

Columns and labels:
Green foxtail [1] = experiment: Test D green foxtail; type: in vivo; conditions: Postemergence, 0 to 100 scale, 0 no injury, 100 complete control
bedstraw = experiment: Test B pre/postemergence bedstraw; type: in vivo, Galium aparine
Outline: (§1)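 Response is a visual 0-to-10 score relative to untreated plants, where 0 means no effect and 10 means complete control, taken twelve to sixteen days after application. Treatments went onto soil at planting and onto foliage of 1- to 4-leaf plants, using a surfactant-containing non-phytotoxic solvent.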

large crabgrass = experiment: Test D large crabgrass; type: in vivo, Digitaria sanguinalis; conditions: Postemergence, 0 to 100 scale
purple nutsedge = experiment: Test D purple nutsedge; type: in vivo, Cyperus rotundus; conditions: Postemergence, 0 to 100 scale
soybean = experiment: Test B pre/postemergence soybean; type: in vivo, Glycine max; conditions: for Soybean plant response rating: scale of 0 to 10 where 0 is no effect and 10 is complete control
Outline: as §1

pitted morningglory = experiment: Test D pitted morningglory; type: in vivo, Ipomoea lacunosa; conditions: Postemergence, 0 to 100 scale
surinam grass = experiment: Test D surinam grass; type: in vivo, Brachiaria decumbens; conditions: Postemergence, 0 to 100 scale
common groundsel = experiment: Test D common groundsel; type: in vivo, Senecio vulgaris; conditions: Postemergence, 0 to 100 scale
Alexandergrass = experiment: Test D Alexandergrass; type: in vivo, Brachiaria plantaginea; conditions: Postemergence, 0 to 100 scale
wild oat = experiment: Test B pre/postemergence wild oat; type: in vivo, Avena fatua; conditions: for Wild oats plant response rating: scale of 0 to 10 where 0 is no effect and 10 is complete control
Outline: as §1

bamyardgrass = experiment: Test B flood test barnyardgrass; type: in vivo, Echinochloa crus-galli; conditions: for Barnyardgrass plant response rating: Rate 62 g/ha
Outline: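 Each value is a visual injury score relative to controls, with 10 meaning complete control and 0 no effect. Evaluation took place twelve to sixteen days after the 2-leaf-stage plants were treated and kept in the greenhouse.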

Green foxtail [2] = experiment: Test D green foxtail; type: in vivo; conditions: Rate 250 g/ha; Postemergence; 0 to 100 scale
common pursiane = experiment: Test D common purslane; type: in vivo, Portulaca oleracea; conditions: Postemergence, 0 to 100 scale
guineagrass = experiment: Test D guineagrass; type: in vivo, Panicum maximum; conditions: Postemergence, 0 to 100 scale
[3] = Postemergence, Rate 125 g/ha, scale 0 to 10, 0 is no effect, 10 is complete control
[4] = Rate 62 g/ha, Postemergence, scale of 0 to 10 where 0 is no effect and 10 is complete control
[5] = Rate 250 g/ha, Postemergence, scale of 0 to 10 where 0 is no effect and 10 is complete control
[6] = Rate 500 g/ha, Postemergence, scale 0 to 10, 0 no effect, 10 complete control
[7] = Rate 16 g/ha, 0 no injury, 100 complete control
[8] = Rate 32 g/ha, 0 no injury, 100 complete control
[9] = Rate 64 g/ha, 0 no injury, 100 complete control
[10] = Rate 125 g/ha, 0 no injury, 100 complete control
[11] = Preemergence, Rate 62 g/ha, scale 0 to 10 (0 no effect, 10 complete control)
[12] = Postemergence (flood test), Rate 125 g/ha, scale 0 to 10, 0 is no effect, 10 is complete control
[13] = Postemergence (flood test species), scale of 0 to 10 where 0 is no effect and 10 is complete control
[14] = Rate 250 g/ha, Postemergence (flood test species), scale of 0 to 10 where 0 is no effect and 10 is complete control
[15] = Rate 500 g/ha, listed under Postemergence (flood test species), scale 0 to 10, 0 no effect, 10 complete control

## CC(C)N(C(=O)n1oc(=O)n(CC2CCCO2)c1=O)c1ccc(F)cc1 (stereo not drawn) [Compound 343]
Green foxtail [1]; Rate 16 g/ha
  Plant response rating, Green foxtail: 0
Green foxtail [1]; Rate 32 g/ha
  Plant response rating, Green foxtail: 100
bedstraw; [3]
  Plant response rating, Bedstraw: 0
bedstraw; [4]
  Bedstraw plant response rating: 0
bedstraw; [5]
  Plant response rating, Bedstraw: 0
bedstraw; [6]
  Plant response rating, Bedstraw: 3
Large crabgrass; [7]
  Plant response rating, Large crabgrass: 0
Large crabgrass; [8]
  Plant response rating, Large crabgrass: 30
Large crabgrass; [9]
  Plant response rating, Large crabgrass: 90
Large crabgrass; [10]
  Plant response rating, Large crabgrass: 100
Large crabgrass; Rate 250 g/ha
  Plant response rating, Large crabgrass: 100
Purple nutsedge; [7]
  Plant response rating, Purple nutsedge: 0
Purple nutsedge; [8]
  Plant response rating, Purple nutsedge: 0
Purple nutsedge; [9]
  Purple nutsedge plant response rating: 0
Purple nutsedge; [10]
  Purple nutsedge plant response rating: 0
Purple nutsedge; Rate 250 g/ha
  Plant response rating, Purple nutsedge: 0
soybean; [3]
  Plant response rating, Soybean: 1
soybean; [11]
  Plant response rating, Soybean: 0
soybean; Preemergence, Rate 125 g/ha
  Soybean plant response rating (0 to 10 scale): 0
soybean; Preemergence, Rate 250 g/ha
  Soybean plant response rating: 0
soybean; Preemergence, Rate 500 g/ha
  Soybean plant response rating: 0
soybean; Rate 62 g/ha, Postemergence
  Soybean plant response rating: 1
soybean; [6]
  Plant response rating, Soybean: 3
Pitted morningglory; [7]
  Plant response rating, P. morninglory: 0
Pitted morningglory; [8]
  Plant response rating, P. morninglory: 0
Pitted morningglory; [9]
  Plant response rating, P. morninglory: 0
Pitted morningglory; [10]
  Plant response rating, P. morninglory: 0
Pitted morningglory; Rate 250 g/ha
  Plant response rating, P. morninglory: 0
Surinam grass; [7]
  Plant response rating, Surinam grass: 0
Surinam grass; [8]
  Plant response rating, Surinam grass: 20
Surinam grass; [9]
  Surinam grass plant response rating: 20
Surinam grass; [10]
  Surinam grass plant response rating: 70
Surinam grass; Rate 250 g/ha
  Plant response rating, Surinam grass: 100
Common groundsel; [7]
  Plant response rating, Com. groundsel: 0
Common groundsel; [8]
  Plant response rating, Com. groundsel: 40
Common groundsel; [9]
  Plant response rating, Com. groundsel: 100
Common groundsel; [10]
  Plant response rating, Com. groundsel: 100
Common groundsel; Rate 250 g/ha
  Plant response rating, Com. groundsel: 100
Alexandergrass; [7]
  Plant response rating, Alexandergrass: 0
Alexandergrass; [8]
  Plant response rating, Alexandergrass: 0
Alexandergrass; [9]
  Plant response rating, Alexandergrass: 50
Alexandergrass; [10]
  Plant response rating, Alexandergrass: 100
Alexandergrass; Rate 250 g/ha
  Plant response rating, Alexandergrass: 100
Wild oat; [3]
  Plant response rating, Wild oats: 4
Wild oat; [11]
  Plant response rating, Wild oats: 2
Wild oat; Preemergence, Rate 125 g/ha
  Wild oats plant response rating (0 to 10 scale): 4
Wild oat; Preemergence, Rate 250 g/ha
  Wild oats plant response rating: 9
Wild oat; Preemergence, Rate 500 g/ha
  Wild oats plant response rating: 9
Wild oat; Rate 62 g/ha, Postemergence
  Wild oats plant response rating: 0
Wild oat; [6]
  Plant response rating, Wild oats: 4
bamyardgrass; [12]
  Plant response rating, Barnyardgrass: 0
bamyardgrass; [13]
  Barnyardgrass plant response rating: 0
bamyardgrass; [14]
  Plant response rating, Barnyardgrass: 0
bamyardgrass; [15]
  Plant response rating, Barnyardgrass: 2
Green foxtail [2]
  Plant response rating, Green foxtail: 100
Common pursiane; [7]
  Plant response rating, C. purslane: 0
Common pursiane; [8]
  Plant response rating, C. purslane: 0
Common pursiane; [9]
  Plant response rating, C. purslane: 0
Common pursiane; [10]
  Plant response rating, C. purslane: 0
Common pursiane; Rate 250 g/ha
  Plant response rating, C. purslane: 0
guineagrass; [7]
  Plant response rating, Guineagrass: 0
guineagrass; [8]
  Plant response rating, Guineagrass: 0
guineagrass; [9]
  Guineagrass plant response rating: 80
  Plant response rating, Guineagrass: 0
guineagrass; [10]
  Plant response rating, Guineagrass: 50
guineagrass; Rate 250 g/ha
  Plant response rating, Guineagrass: 100

## COCC(C)n1c(=O)on(C(=O)N(c2ccc(F)cc2F)C(C)C)c1=O (stereo not drawn) [Compound 357]
Green foxtail [1]; Rate 16 g/ha
  Plant response rating, Green foxtail: 10
Green foxtail [1]; Rate 32 g/ha
  Plant response rating, Green foxtail: 30
bedstraw; [3]
  Plant response rating, Bedstraw: 0
bedstraw; [11]
  Plant response rating, Bedstraw: 10
bedstraw; Preemergence, Rate 125 g/ha
  Bedstraw plant response rating (0 to 10 scale): 10
bedstraw; Preemergence, Rate 250 g/ha, scale of 0 to 10 where 0 is no effect and 10 is complete control
  Bedstraw plant response rating: 10
bedstraw; Preemergence, Rate 500 g/ha, scale of 0 to 10 where 0 is no effect and 10 is complete control
  Bedstraw plant response rating: 10
bedstraw; [4]
  Bedstraw plant response rating: 0
bedstraw; [5]
  Plant response rating, Bedstraw: 0
bedstraw; [6]
  Plant response rating, Bedstraw: 5
Large crabgrass; [7]
  Plant response rating, Large crabgrass: 100
Large crabgrass; [8]
  Plant response rating, Large crabgrass: 100
Large crabgrass; [9]
  Plant response rating, Large crabgrass: 100
Large crabgrass; [10]
  Plant response rating, Large crabgrass: 100
Large crabgrass; Rate 250 g/ha
  Plant response rating, Large crabgrass: 100
Purple nutsedge; [7]
  Plant response rating, Purple nutsedge: 0
Purple nutsedge; [8]
  Plant response rating, Purple nutsedge: 0
Purple nutsedge; [9]
  Purple nutsedge plant response rating: 0
Purple nutsedge; [10]
  Purple nutsedge plant response rating: 0
Purple nutsedge; Rate 250 g/ha
  Plant response rating, Purple nutsedge: 50
soybean; [3]
  Plant response rating, Soybean: 2
soybean; [11]
  Plant response rating, Soybean: 0
soybean; Preemergence, Rate 125 g/ha
  Soybean plant response rating (0 to 10 scale): 0
soybean; Preemergence, Rate 250 g/ha
  Soybean plant response rating: 0
soybean; Preemergence, Rate 500 g/ha
  Soybean plant response rating: 0
soybean; Rate 62 g/ha, Postemergence
  Soybean plant response rating: 2
soybean; [6]
  Plant response rating, Soybean: 3
Pitted morningglory; [7]
  Plant response rating, P. morninglory: 0
Pitted morningglory; [8]
  Plant response rating, P. morninglory: 0
Pitted morningglory; [9]
  Plant response rating, P. morninglory: 0
Pitted morningglory; [10]
  Plant response rating, P. morninglory: 0
Pitted morningglory; Rate 250 g/ha
  Plant response rating, P. morninglory: 0
Surinam grass; [7]
  Plant response rating, Surinam grass: 0
Surinam grass; [8]
  Plant response rating, Surinam grass: 20
Surinam grass; [9]
  Surinam grass plant response rating: 80
Surinam grass; [10]
  Surinam grass plant response rating: 100
Surinam grass; Rate 250 g/ha
  Plant response rating, Surinam grass: 100
Common groundsel; [8]
  Plant response rating, Com. groundsel: 40
Common groundsel; [9]
  Plant response rating, Com. groundsel: 100
Common groundsel; [10]
  Plant response rating, Com. groundsel: 100
Common groundsel; Rate 250 g/ha
  Plant response rating, Com. groundsel: 100
Alexandergrass; [7]
  Plant response rating, Alexandergrass: 0
Alexandergrass; [8]
  Plant response rating, Alexandergrass: 20
Alexandergrass; [9]
  Plant response rating, Alexandergrass: 100
Alexandergrass; [10]
  Plant response rating, Alexandergrass: 100
Alexandergrass; Rate 250 g/ha
  Plant response rating, Alexandergrass: 100
Wild oat; [3]
  Plant response rating, Wild oats: 4
Wild oat; [11]
  Plant response rating, Wild oats: 9
Wild oat; Preemergence, Rate 125 g/ha
  Wild oats plant response rating (0 to 10 scale): 10
Wild oat; Preemergence, Rate 250 g/ha
  Wild oats plant response rating: 10
Wild oat; Preemergence, Rate 500 g/ha
  Wild oats plant response rating: 10
Wild oat; Rate 62 g/ha, Postemergence
  Wild oats plant response rating: 3
Wild oat; [6]
  Plant response rating, Wild oats: 6
bamyardgrass; [12]
  Plant response rating, Barnyardgrass: 2
bamyardgrass; [13]
  Barnyardgrass plant response rating: 0
bamyardgrass; [14]
  Plant response rating, Barnyardgrass: 4
bamyardgrass; [15]
  Plant response rating, Barnyardgrass: 6
Green foxtail [2]
  Plant response rating, Green foxtail: 100
Common pursiane; [7]
  Plant response rating, C. purslane: 0
Common pursiane; [8]
  Plant response rating, C. purslane: 0
Common pursiane; [9]
  Plant response rating, C. purslane: 0
Common pursiane; [10]
  Plant response rating, C. purslane: 0
Common pursiane; Rate 250 g/ha
  Plant response rating, C. purslane: 0
guineagrass; [7]
  Plant response rating, Guineagrass: 0
guineagrass; [8]
  Plant response rating, Guineagrass: 0
guineagrass; [9]
  Guineagrass plant response rating: 60
  Plant response rating, Guineagrass: 20
guineagrass; [10]
  Plant response rating, Guineagrass: 70
guineagrass; Rate 250 g/ha
  Plant response rating, Guineagrass: 100
